Measured values taken from patent US9138449B2, “Medicinal composition for liver diseases” (Shanghai Sundise Chinese Medicine Technology Development …, priority 2006, dated 2015).
Marks after values point to notes of the source that are not given here.

What was measured:
[1] = test system: liver fibrosis model in rat induced by CCl4; experiment: Prophylaxis action on liver fibrosis in rats induced by CCl4 with high lipid, low protein food; format: in vivo
Experimental: Pharmacological model: The liver fibrosis model in rat was induced by hypodermical injection of CCl4 and fed with the food containing high lipid and low protein. 100 wt % CCl4 was used at the first injection with a dosage of 1 ml/kg wt rat, then 40 wt % CCl4 in olive oil with a dosage of 3 ml/kg wt. was applied, twice per week and lasting for 2 weeks. During the first 2 weeks of intoxication, the rats were fed with the food containing 79.5 wt % maizena, 20 wt % grease and 0.5 wt % cholesterol, then with the pure maize food for later 4 weeks.
All dosages were 10 times human dosage with 65 kg by the same body weight.

[2] = test system: hepatic fibrosis in rats induced by dimethylnitrosamine (DMN); experiment: Treatment effect on hepatic fibrosis in rats induced by dimethylnitrosamine (DMN); format: in vivo, rat
Experimental: Pharmacological model: The hepatic fibrosis model was induced by intraperitoneal injections of dimethylnitrosamine at a dosage of […] rat wt, the injection was given on the first consecutive 3 days of each week over a period of 4 weeks, once per day.
Groups and drug administration: After establishing the model, the model rats were divided into model control, Fuzheng Huayu Prep I, Fuzheng Huayu Prep II, and (N-Acetylcysteine, NAC) groups, also normal rats was set as the normal control, with total 5 groups. The model rats in Fuzheng Huayu Prep I and II took orally Fuzheng Huayu decoction at the dosage of 4.6 g/kg rat wt from the beginning of the 5th week to end of the 8th week, one time per day for 4 weeks, NAC group received NAC at the dosage of 100 mg/kg wt, and controls took the same volume of saline. (body weight equivalent to 10 times of 65 kg adult dosage).

[3] = CCl4 fibrotic rats, 6 weeks dosing, x ± s
[4] = Preps 4.6 g/kg or VitE 50 mg/kg orally once daily for 6 weeks
[5] = DMN fibrotic rats, 4 weeks treatment, x ± s
[6] = Preps 4.6 g/kg or NAC 100 mg/kg once daily, weeks 5-8

## Vitamin E [Vit E]
[1]; CCl4 fibrotic rats, vs. model control
  Liver tissue pathological examination (hepatic inflammation, collagen deposition; HE and Sirius red staining), in words: much better conditions of hepatic inflammation compared to the controls
[1]; [3]
  Hepatic Hyp: 296.2 ± 49.8 μg/g liver
  Hepatic MDA: 4.5 ± 1.3 μmol/g protien
  Hepatic SOD: 1062 ± 83 NU/g liver
  Hepatic Triglyceride: 12.6 ± 3.7 μg/g liver
  Serum ALT: 106.4 ± 45.9 U/L
  Serum AST: 127.7 ± 37.2 U/L
  Serum T. BIL: 14.1 ± 3.3 µmol/L
  Serum T. Protein: 55.8 ± 4.2 g/L
[1]; [4]
  Liver fibrotic stage S0 (number of rats): 0
  Liver fibrotic stage S1 (number of rats): 6
  Liver fibrotic stage S2 (number of rats): 6
  Liver fibrotic stage S3 (number of rats): 2
  Liver fibrotic stage S4 (number of rats): 0
  R (Ridit examination of liver fibrotic stages): 0.506^#

## CC(=O)N[C@@H](CS)C(=O)O [NAC, N-Acetylcysteine]
[2]; [5]
  Hepatic Hyp content: 482.1 ± 124.4 μg/g liver
  Hepatic SOD activity: 252.2 ± 47.6^# 10^3 × NU/g protein
  Serum ALT: 67.7 ± 36.1 U/L
  Serum AST: 76.5 ± 25.5 U/L
  Serum Alb: 30.9 ± 5.5 g/L
  Serum T. BIL: 18.8 ± 2.8 µmol/L
  Serum T. Protein: 60.4 ± 11.2 g/L
[2]; [6]
  Liver fibrotic stage S0 (number of rats): 0
  Liver fibrotic stage S1 (number of rats): 1
  Liver fibrotic stage S2 (number of rats): 5
  Liver fibrotic stage S3 (number of rats): 4
  Liver fibrotic stage S4 (number of rats): 2
  R (Ridit examination of liver fibrotic stages): 0.415^#
